Among the data in US11078204B2, “Heterocyclic derivatives as PI3K inhibitors” (Incyte Corporation, priority 2018, dated 2021) are IC50 values, retold here.

For assay [1], the target named is PI3Kγ (p110γ) Recombinant Human Protein (Homo sapiens (Human), UniProt P48736). The assay can be described thus: PI3K-γ Scintillation Proximity Assay. The note with it: 20 μM PIP2, 2 μM ATP, 13 nM PI3Kγ, 120 min. The class given is biochemical. An excerpt:
Example B. PI3K-γ Scintillation Proximity Assay
[γ-^33P]ATP (10 mCi/mL) and Wheat Germ Agglutinin (WGA) YSi SPA Scintillation Beads was purchased from Perkin Elmer (Waltham, Mass.). Lipid kinase substrate, D-myo-Phosphatidylinositol 4,5-bisphosphate (PtdInS(4,5)P2)D (+)-sn-1,2-di-O-octanoylglyceryl, 3-O-phospho linked (PIP2), CAS 204858-53-7, was purchased from Echelon Biosciences (Salt Lake City, Utah). PI3Kγ (p110γ) Recombinant Human Protein was purchased from Life technology (Grand Island, N.Y.). ATP, MgCl2, DTT, EDTA, MOPS and CHAPS were purchased from Sigma Aldrich (St. Louis, Mo.).
(§1) The kinase reaction was conducted in polystyrene 384-well Greiner Bio-one white plate from Thermo Fisher Scientific in a final volume of 25 μL. Inhibitors were first diluted serially in DMSO and added to the plate wells before the addition of other reaction components. The final concentration of DMSO in the assay was 2%. The PI3Kγ assay was carried out at room temperature in 20 mM MOPS, pH 6.7, 10 mM MgCl2, 5 mM DTT and CHAPS 0.03%. Reactions were initiated by the addition of ATP, the final reaction mixture consisted of 20 μM PIP2, 2 μM ATP, 0.5 μCi [γ-^33p]ATP, 13 nM PI3Kγ. Reactions were incubated for 120 min and terminated by the addition of 40 μL SPA beads suspended in quench buffer: 163 mM potassium phosphate pH 7.8, 20% glycerol, 25 mM EDTA. The final concentration of SPA beads is 1.0 mg/mL. After the plate sealing, plates were shaken overnight at room temperature and centrifuged at 1500 rpm for 10 min, the radioactivity of the product was determined by scintillation counting on Topcount (PerkinElmer). IC50 determination was performed by fitting the curve of percent of the solvent control activity versus the log of the inhibitor concentration using the GraphPad Prism 6.0 software.
On the technique in general: SPA uses beads or plates that emit light when radiolabelled molecules are held near them.

The subject of assay [2] is Phosphorylated Ribosomal Protein S6 (RPS6) in THP-1 cells. The assay can be described thus: THP-1 RPS6 ELISA Assay. The assay is classed as cell-based. Particulars: Homo sapiens, 2 hours compound, 10 nM MCP-1 for 15 minutes, Phospho-RPS6 ELISA, read-out: PI3Kγ_THP1_RPS6_ELISA IC50. As to the method: Example A. THP-1 RPS6 ELISA Assay To measure the Phosphorylated Ribosomal Protein S6 (RPS6) in cell lysates, THP-1 cells (Human Acute Monocytic Leukemia) are purchased from ATCC (Manassas, Va.) and maintained in RPMI with 10% FBS (Gibco/Life Technologies, Carlsbad, Calif.). For the assay, THP-1 cells are serum starved overnight in RPMI, then plated in RPMI (2×10^5 cells/well in 90 μL) into 96-well flat-bottom tissue culture treated plates (Corning, Corning, N.Y.), in the presence or absence of a concentration range of test compounds. Covered plates are incubated for 2 hours at 37° C., 5% CO2 then treated with or without 10 nM MCP-1 (MYBioSource, San Diego, Calif.) for 15 minutes at 37° C., 5% CO2. Plates are centrifuged at 1600 RPM and supernatants are removed. Cells are lysed in Lysis Buffer (Cell Signaling, Danvers, Mass.) with Protease Inhibitor (Calbiochem/EMD, Germany), PMSF (Sigma, St Louis Mo.), HALTS (Thermo Fisher, Rockford, Ill.) for 30 min on wet ice. Cell lysates are frozen at −80° C. before testing. The lysates are tested in the Human/Mouse/Rat Phospho-RPS6 ELISA (R&D Systems, Inc. Minn, Minn.). The plate is measured using a microplate reader (SpectraMax M5-Molecular Devices, LLC Sunnyvale, Calif.) set to 450 nm with a wavelength correction of 540. IC50 determination is performed by fitting the curve of inhibitor percent inhibition versus the log of the inhibitor concentration using the GraphPad Prism 5.0 software.
In general terms: An ELISA detects its analyte on a solid surface through an enzyme-linked reagent.

Assay [3] deals with PI3Kδ (p110δ/p85α) Recombinant Human Protein (Homo sapiens (Human), UniProt O00329). The assay can be described thus: PI3Kδ Scintillation Proximity Assay. The class given is biochemical. The note with it: 20 μM PIP2, 2 μM ATP, 3.4 nM PI3Kδ, 120 min.
Excerpt: Example C. PI3Kδ Scintillation Proximity Assay
[γ-^33P]ATP (10 mCi/mL) and Wheat Germ Agglutinin (WGA) YSi SPA Scintillation Beads was purchased from Perkin Elmer (Waltham, Mass.). Lipid kinase substrate, D-myo-Phosphatidylinositol 4,5-bisphosphate (PtdInS(4,5)P2)D (+)-sn-1,2-di-O-octanoylglyceryl, 3-O-phospho linked (PIP2), CAS 204858-53-7, was purchased from Echelon Biosciences (Salt Lake City, Utah). PI3Kδ (p110δ/p85α) Recombinant Human Protein was purchased from Eurofins (St Charles, Mo.). ATP, MgCl2, DTT, EDTA, MOPS and CHAPS were purchased from Sigma Aldrich (St. Louis, Mo.).
as §1, with “PI3Kδ” for “PI3Kγ”, “[γ-^33P]ATP, 3.4” for “[γ-^33p]ATP, 13”, “PI3Kδ.” for “PI3Kγ.”

The structures appear in SMILES notation. pIC50: −log10 of the molar value. Where a name gives a salt, the structure may show the parent alone. A value given as a limit tells only on which side of the number the result lay.

What is called pIC50 is −log10 of the IC50, conventionally taken in molar units.

PI3Kγ (p110γ) Recombinant Human Protein, sequence (P48736 whole entry): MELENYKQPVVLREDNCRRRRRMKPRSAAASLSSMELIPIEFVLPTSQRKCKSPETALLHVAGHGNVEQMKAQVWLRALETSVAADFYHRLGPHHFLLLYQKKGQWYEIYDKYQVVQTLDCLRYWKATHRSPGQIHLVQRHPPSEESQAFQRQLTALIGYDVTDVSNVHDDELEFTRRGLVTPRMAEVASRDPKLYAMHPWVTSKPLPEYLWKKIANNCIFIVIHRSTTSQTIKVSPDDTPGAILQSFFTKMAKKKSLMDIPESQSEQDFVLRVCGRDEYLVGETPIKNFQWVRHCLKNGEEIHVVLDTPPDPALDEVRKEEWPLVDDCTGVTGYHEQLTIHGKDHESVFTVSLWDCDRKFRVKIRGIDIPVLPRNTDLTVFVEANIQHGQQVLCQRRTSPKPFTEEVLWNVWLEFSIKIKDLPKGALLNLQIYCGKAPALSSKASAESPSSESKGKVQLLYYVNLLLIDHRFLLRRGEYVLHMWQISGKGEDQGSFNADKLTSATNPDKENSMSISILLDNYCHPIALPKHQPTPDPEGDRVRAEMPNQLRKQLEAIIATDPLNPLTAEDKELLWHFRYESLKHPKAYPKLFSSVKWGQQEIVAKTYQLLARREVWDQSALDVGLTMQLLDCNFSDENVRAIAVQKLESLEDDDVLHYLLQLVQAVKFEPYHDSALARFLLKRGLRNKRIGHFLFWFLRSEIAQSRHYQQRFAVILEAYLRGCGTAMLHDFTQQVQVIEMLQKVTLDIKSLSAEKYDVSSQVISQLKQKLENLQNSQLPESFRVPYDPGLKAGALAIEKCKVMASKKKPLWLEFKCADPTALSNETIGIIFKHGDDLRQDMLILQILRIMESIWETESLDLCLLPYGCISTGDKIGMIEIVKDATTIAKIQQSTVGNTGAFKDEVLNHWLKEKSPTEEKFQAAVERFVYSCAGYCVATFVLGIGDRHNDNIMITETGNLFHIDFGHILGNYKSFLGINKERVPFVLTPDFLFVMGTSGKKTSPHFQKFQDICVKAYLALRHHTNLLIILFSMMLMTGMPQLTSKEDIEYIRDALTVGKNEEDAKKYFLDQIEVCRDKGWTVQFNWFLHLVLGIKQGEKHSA
PI3Kδ (p110δ/p85α) Recombinant Human Protein, sequence (O00329 whole entry): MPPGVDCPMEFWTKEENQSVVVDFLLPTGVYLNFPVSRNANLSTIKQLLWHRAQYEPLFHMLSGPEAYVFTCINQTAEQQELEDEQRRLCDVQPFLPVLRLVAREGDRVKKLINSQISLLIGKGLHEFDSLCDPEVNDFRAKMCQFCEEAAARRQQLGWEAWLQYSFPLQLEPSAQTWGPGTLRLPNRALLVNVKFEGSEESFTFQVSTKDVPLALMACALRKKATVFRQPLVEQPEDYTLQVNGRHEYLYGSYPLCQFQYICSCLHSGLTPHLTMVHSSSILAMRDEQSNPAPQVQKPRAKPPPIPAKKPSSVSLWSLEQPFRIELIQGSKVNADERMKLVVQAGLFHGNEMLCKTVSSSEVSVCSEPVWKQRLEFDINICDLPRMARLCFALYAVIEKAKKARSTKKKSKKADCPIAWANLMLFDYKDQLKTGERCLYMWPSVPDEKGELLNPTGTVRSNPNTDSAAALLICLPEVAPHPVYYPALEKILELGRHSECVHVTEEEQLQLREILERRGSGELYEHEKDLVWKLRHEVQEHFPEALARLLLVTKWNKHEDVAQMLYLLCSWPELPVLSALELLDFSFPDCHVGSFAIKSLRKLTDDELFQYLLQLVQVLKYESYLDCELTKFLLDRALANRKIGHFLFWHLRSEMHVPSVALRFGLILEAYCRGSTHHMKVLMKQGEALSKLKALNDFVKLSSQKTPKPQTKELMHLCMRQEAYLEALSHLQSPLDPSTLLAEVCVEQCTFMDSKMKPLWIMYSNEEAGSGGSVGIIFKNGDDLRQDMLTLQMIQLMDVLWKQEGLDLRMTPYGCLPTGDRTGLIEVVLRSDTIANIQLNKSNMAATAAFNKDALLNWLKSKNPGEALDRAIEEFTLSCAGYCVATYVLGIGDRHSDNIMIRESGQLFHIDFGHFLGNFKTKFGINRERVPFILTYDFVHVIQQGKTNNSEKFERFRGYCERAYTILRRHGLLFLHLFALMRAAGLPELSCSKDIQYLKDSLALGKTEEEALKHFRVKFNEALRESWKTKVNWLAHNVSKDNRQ
PI3Kδ (p110δ/p85α) Recombinant Human Protein, sequence (P27986 whole entry partner): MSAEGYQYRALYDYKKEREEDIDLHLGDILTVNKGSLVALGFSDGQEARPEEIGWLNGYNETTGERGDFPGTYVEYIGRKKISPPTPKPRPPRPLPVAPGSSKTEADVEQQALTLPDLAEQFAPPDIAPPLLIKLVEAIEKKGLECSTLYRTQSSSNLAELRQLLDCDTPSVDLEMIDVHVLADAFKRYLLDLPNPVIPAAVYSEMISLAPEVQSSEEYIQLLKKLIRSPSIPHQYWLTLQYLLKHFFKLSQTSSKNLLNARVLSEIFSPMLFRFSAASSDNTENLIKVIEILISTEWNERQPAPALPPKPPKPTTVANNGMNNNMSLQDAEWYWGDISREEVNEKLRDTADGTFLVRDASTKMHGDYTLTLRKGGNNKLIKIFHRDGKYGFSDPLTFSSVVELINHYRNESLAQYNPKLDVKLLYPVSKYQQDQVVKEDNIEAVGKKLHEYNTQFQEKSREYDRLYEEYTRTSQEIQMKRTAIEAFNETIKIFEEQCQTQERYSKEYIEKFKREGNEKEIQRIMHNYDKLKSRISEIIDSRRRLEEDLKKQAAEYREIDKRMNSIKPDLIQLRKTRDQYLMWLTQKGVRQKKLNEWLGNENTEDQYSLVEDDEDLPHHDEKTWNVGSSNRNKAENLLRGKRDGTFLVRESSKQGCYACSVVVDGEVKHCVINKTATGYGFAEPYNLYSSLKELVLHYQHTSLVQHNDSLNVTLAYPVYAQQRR

With `CC(C)N1Cc2cc(-c3cnc4c(N)ncnn34)ccc2C1=O` [Example 14, 5-(4-Aminoimidazo[2,1-f][1,2,4]triazin-7-yl)-2-isopropylisoindolin-1-one trifluoroacetate salt], the pIC50 was not below 7.00 in assay [1], not above 6.00 in assay [2] and not above 5.70 in assay [3].
Taken in the same sequence, the figures for `C[C@@H](C1CC1)N1Cc2cc(-c3cnc4c(N)nc(C(=O)NC5CCOCC5O)cn34)ccc2C1=O` (mixture of isomers) [Example 32, 8-Amino-3-(2-((S)-1-cyclopropylethyl)-1-oxoisoindolin-5-yl)-N-(3-hydroxytetrahydro-2H-pyran-4-yl)imidazo[1,2-a]pyrazine-6-carboxamide, trifluoroacetate salt] were not below 7.00, not above 6.00 and not above 5.70.
As for `Cc1[nH]ncc1-c1cn2c(-c3cc4c(c(S(C)(=O)=O)c3)C(=O)N([C@@H](C)C3CC3)C4)cnc2c(N)n1` [Example 37, (S)-5-(8-Amino-6-(5-methyl-1H-pyrazol-4-yl)imidazo[1,2-a]pyrazin-3-yl)-2-(1-cyclopropylethyl)-7-(methylsulfonyl)isoindolin-1-one, trifluoroacetate salt], the figures for the negative logarithm of the IC50 (pIC50) in assay [1], in assay [2] and in assay [3] were not below 7.00, more than 6.00 and not below 6.30, respectively.
As for `Cc1ncc(-c2cn3c(-c4cc5c(c(S(C)(=O)=O)c4)C(=O)N([C@@H](C)C4CC4)C5)cnc3c(N)n2)o1` (single isomer, unassigned) [Example 33, trifluoroacetate salt], the pIC50 is not below 7.00 in assay [1], not below 6.30 in assay [2] and not below 7.00 in assay [3].
Take `C[C@@H](C1CC1)N1Cc2cc(-c3cnc4c(N)nc(-c5cn[nH]c5)cn34)cc(S(C)(=O)=O)c2C1=O` [Example 38, (S)-5-(8-Amino-6-(1H-pyrazol-4-yl)imidazo[1,2-a]pyrazin-3-yl)-2-(1-cyclopropylethyl)-7-(methylsulfonyl)isoindolin-1-one, trifluoroacetate salt]: the pIC50 was not below 7.00 in assay [1], not above 6.00 in assay [2] and not below 6.30 in assay [3].
For `C[C@@H](C1CC1)N1Cc2cc(-c3cnc4c(N)ncnn34)cc(S(C)(=O)=O)c2C1=O` [Example 8, (S)-5-(4-Aminoimidazo[2,1-f][1,2,4]triazin-7-yl)-2-(1-cyclopropylethyl)-7-(methylsulfonyl)isoindolin-1-one], the pIC50 in assay [1] was not below 7.00; in assay [2], more than 6.00; in assay [3] it was not below 6.30.
Taken in the same sequence, the figures for `C[C@@H](C1CC1)N1Cc2cc(-c3cnc4c(N)nc(C(F)(F)F)cn34)cc(C(O)(CO)C(F)(F)F)c2C1=O` (mixture of isomers) [Example 40, 5-(8-Amino-6-(trifluoromethyl)imidazo[1,2-a]pyrazin-3-yl)-2-((S)-1-cyclopropylethyl)-7-(1,1,1-trifluoro-2,3-dihydroxypropan-2-yl)isoindolin-1-one, trifluoroacetate salt] were not below 7.00, not above 6.00 and more than 5.70.
Take `CC(C)N1Cc2cc(-c3cnc4c(N)nc(C(F)(F)F)cn34)ccc2C1=O` [Example 13, 5-(8-Amino-6-(trifluoromethyl)imidazo[l,2-a]pyrazin-3-yl)-2-isopropylisoindolin-1-one trifluoroacetate salt]: the pIC50 in assay [1] was not below 7.00; in assay [2] it was not above 6.00; in assay [3], not above 5.70.
With `CC(=O)c1cc(-c2cnc3c(N)ncnn23)cc2c1C(=O)N([C@@H](C)C1CC1)C2` [Example 15, (S)-7-Acetyl-5-(4-aminoimidazo[2,1-f][1,2,4]triazin-7-yl)-2-(1-cyclopropylethyl)isoindolin-1-one trifluoroacetate salt], the negative-log IC50 (pIC50) in assay [1] is not below 7.00; in assay [2], not above 6.00; in assay [3], not below 6.30.
Take `C[C@@H](C1CC1)N1Cc2cc(-c3cnc4c(N)ncnn34)cc(C(C)(C)O)c2C1=O` [Example 17, (S)-5-(4-Aminoimidazo[2,1-f][1,2,4]triazin-7-yl)-2-(1-cyclopropylethyl)-7-(2-hydroxypropan-2-yl)isoindolin-1-one trifluoroacetate salt]: the pIC50 in assay [1] was not below 7.00; in assay [2] it was more than 6.00; in assay [3], more than 5.70.
With `CC(C)NC(=O)c1cn2c(-c3cc4c(c(S(C)(=O)=O)c3)C(=O)N([C@@H](C)C3CC3)C4)cnc2c(N)n1` (single isomer, unassigned) [Example 28, trifluoroacetate salt], the pIC50 was not below 7.00 in assay [1], not below 6.30 in assay [2] and not below 6.30 in assay [3].
For the compound `C[C@@H](C1CC1)N1Cc2cc(-c3cnc4c(N)nc(C(=O)N5CC(F)(F)C5)cn34)cc(S(C)(=O)=O)c2C1=O` [Example 29d, (S)-5-(8-Amino-6-(3,3-difluoroazetidine-1-carbonyl)imidazo[1,2-a]pyrazin-3-yl)-2-(1-cyclopropylethyl)-7-(methylsulfonyl)isoindolin-1-one, trifluoroacetate salt], the results for the pIC50 in assay [1], in assay [2] and in assay [3] were not below 7.00, more than 6.00 and not below 6.30, respectively.
As to `C[C@@H](C1CC1)N1Cc2cc(-c3cnc4c(N)nc(C(F)(F)F)cn34)ccc2C1=O` [Example 5, (S)-5-(8-Amino-6-(trifluoromethyl)imidazo[1,2-a]pyrazin-3-yl)-2-(1-cyclopropylethyl)isoindolin-1-one], the figures for the pIC50 in assay [1], in assay [2] and in assay [3] were not below 7.00, not above 6.00 and not above 5.70, respectively.
Turning to `C[C@@H](C1CC1)N1Cc2cc(-c3cnc4c(N)nc(C(F)(F)F)cn34)cc(Cl)c2C1=O` [Example 1, (S)-5-(8-Amino-6-(trifluoromethyl)imidazo[1,2-a]pyrazin-3-yl)-7-chloro-2-(1-cyclopropylethyl)isoindolin-1-one], the negative-log IC50 (pIC50) was not below 7.00 in assay [1], not above 6.00 in assay [2] and more than 5.70 in assay [3].
